Entries after “also recorded” stand apart in the source; their conditions may differ. Read-outs that look alike come from different tables or passages of the source. Blank lines part the entries; values can stand above or below the molecule they belong to.
Legend:
A549 cells = experiment: CCK-8 cell viability, A549; assay type: cell-based; details: Homo sapiens
Method: (§1) All the cell viability assays were performed according to the CCK-8 method. The cells were seeded at a density of 5 to 8 × 10^4 cells/mL in 96-well plates in growth medium supplemented with 10% serum at 37 °C with 5% CO2 for one day. After 12 h of incubation, 100 μL of medium was removed, and 100 μL of sample solution with different concentrations of inhibitor was added and then the cells were incubated for 48 or 72 h. Subsequently, 10 μL of CCK-8 reagent (Biotool Company, Kirchberg, Switzerland, 5.0 mg/mL) dissolved in phosphate-buffered saline (PBS) was added and the cells were incubated for another 4 h. The absorbance was read at 450 nm with a microplate reader (Thermo Fisher Scientific, Waltham, MA, USA). The data were calculated using GraphPad Prim version 5.0.

LO-2 cells = experiment: CCK-8 cell viability, LO-2 normal liver cells; assay type: cell-based; details: Homo sapiens, L02, LO-2 normal liver cell line, read-out: Cellular Antiproliferative Activity (IC50, μM) LO-2
Method: as §1

HCC827 cells = experiment: CCK-8 cell viability, HCC827; assay type: cell-based; details: Homo sapiens
Method: as §1

HBE cells = experiment: CCK-8 cell viability, HBE normal bronchial cells; assay type: cell-based; details: HBE normal human bronchial cell line, read-out: Cellular Antiproliferative Activity (IC50, μM) HBE
Method: as §1

H1975 cells [1] = experiment: CCK-8 cell viability, H1975; assay type: cell-based; details: Homo sapiens, NCI-H1975, H1975 (EGFR T790M), read-out: Cellular Antiproliferative Activity (IC50, μM) H1975
Method: as §1

A431 cells [2] = experiment: Intracellular ROS generation (DCFH-DA), A431; assay type: cell-based, human; details: A431, 24 h
Method: (§2) The human H1975 and A431 cells at a density of approximately 2 × 10^5 cells/well were plated in a 6-well plate and then treated with different concentrations of inhibitors for 24 h. Then the cells were harvested, resuspended in 1 mL of DCFH-DA ([…]), and the levels of ROS were determined by flow cytometry (Becton-Dickinson, Franklin Lakes, NJ, USA).

H1975 cells [3] = experiment: Intracellular ROS generation (DCFH-DA), H1975; assay type: cell-based, human; details: H1975, 24 h
Method: as §2

H1299 cells = experiment: CCK-8 cell viability, H1299; assay type: cell-based; details: Homo sapiens, NCI-H1299, H1299 (wild-type), read-out: Cellular Antiproliferative Activity (IC50, μM) H1299
Method: as §1

A431 cells [4] = experiment: CCK-8 cell viability, A431; assay type: cell-based; details: Homo sapiens
Method: as §1

LoVo cells = experiment: CCK-8 cell viability, LoVo; assay type: cell-based; details: Homo sapiens
Method: as §1

H1975 cells [5] = experiment: Cell apoptosis, Annexin V-FITC/PI flow cytometry, H1975; assay type: cell-based, human; details: 48 h
Method: The H1975 and A431 cells (1 to 5 × 10^5 cells/well) incubated in 6-well plates were treated by different concentrations of inhibitors for 48 h. Then, they were collected and fixed with 70% ethanol at 4 °C overnight. After beening fixed with […], the cells were stained with Annexin V-FITC (5 μL)/propidium iodide (5 μL) and analyzed by flow cytometry assay (Becton-Dickinson, Franklin Lakes, NJ, USA).

[6] = In vivo blood sugar test (rat oral glucose tolerance); details: healthy male SD rats, 50 mg/kg (HBr form), up to 12 h
Method: The Roche Accu-chek® Go blood meter was used for the determination of glucose concentration. Before testing, standard set-up of blood meter was performed according to the instrument’s specifications. […] Water was allowed ad libitum throughout the study. Rats were orally given compound DY3002 (50 mg/kg) and a vehicle. For the oral study, the compounds were formulated as a solution (Solutol HS15: NS = 30:70, v:v). Sampling occurred prior to dosing and at 7–9 different time points up to 12 h. Concentration of glucose in the blood was determined by blood meter.

H1975 cells [7] = experiment: AO/EB and DAPI staining, H1975; assay type: cell-based, human; details: H1975, AO/EB or DAPI staining, 48 h
Method: (§3) Approximately 2 × 10^5 cells/well of A431 and H1975 cells in 6-well plates were incubated in an incubator for 48 h, then treated with different concentrations of inhibitors for 48 h. After incubation, the cells were washed with PBS twice. Then, total of 20 μL of the solution containing the AO/EB dye mix (1.0 μg/mL of AO and 1.0 μg/mL of EB in PBS) was added to the cells. The apoptotic, necrotic, and live cells were observed and counted under the fluorescent microscope (OLYMPUS, Tokyo, Japan). DAPI staining was performed after being treated as mentioned above. The cells plated in 6-well plates were washed twice with PBS and fixed with 10% formaldehyde for 10 min, then washed with PBS three times. Cells were subsequently incubated in DAPI (1.0 μg/mL) solution at room temperature for 10 min, washed with PBS and examined under a fluorescence microscope (OLYMPUS).

H1975 cells [8] = experiment: Cell cycle analysis, PI flow cytometry, H1975; assay type: cell-based, human; details: H1975, 200 nM, 48 h, cell cycle phase
Method: (§4) The H1975 and A431 cells at a density of approximately 2 × 10^5 cells/well were incubated in 6-well plates, treated with different concentrations of inhibitors for 48 h, collected and fixed with 70% ethanol at 4 °C overnight. After fixation, the cells were washed with PBS and stained with propidium iodide (PI) for 10 min under subdued light. Stained cells were analyzed by flow cytometry assay (Becton-Dickinson, Franklin Lakes, NJ, USA).

H1975 cells [9] = experiment: Wound healing and transwell assays, H1975; assay type: cell-based, human
Method: (§5) The cancer cells were cultured in 6-well plates for 48 h at 37 °C. Wounds were created in the cell monolayer and washed with PBS to remove cell debris, then the cells were treated with different concentrations of inhibitor for 48 h. After that, the dead cells were washed away with PBS, and the images were taken by the fluorescence microscope (OLYMPUS).
(§6) Cell migration assay was evaluated by using Boyden chambers containing a transwell membrane filter with an 8 μm size pore (Corning Costa Corp, Cambridge, MA, USA). Prior to the invasion assay, the filter membrane was coated with 60 μL of Matrigel (BD Biosciences, Billerica, MA, USA) at a 1:8 dilution and rehydrated by adding […] serum-free medium to the apical side of the chamber at 37 °C for 0.5 h. The cells (2 × 10^5 cells/well for invasion assay) were seeded to the apical side of the chamber with 200 μL medium with different concentrations of inhibitors, and the basolateral side of the chamber was filled with 600 μL medium containing 10% FBS. After 24 h at 37 °C, the cells adherent to the upper surface of the filter were swept by cotton swabs, then fixed with methanol, stained with crystal violet, and the cells were counted under a microscope in five random fields, irrespective of staining intensity. The images were taken by the fluorescence microscope (OLYMPUS).

A431 cells [10] = experiment: Cell apoptosis, Annexin V-FITC/PI flow cytometry, A431; assay type: cell-based, human; details: 48 h
A431 cells [11] = experiment: AO/EB and DAPI staining, A431; assay type: cell-based, human; details: A431, AO/EB or DAPI staining, 48 h
Method: as §3

A431 cells [12] = experiment: Wound healing and transwell assays, A431; assay type: cell-based, human
Method: as §5, §6

EGFR L858R/T790M = target: T1, EGFR L858R/T790M (Homo sapiens, UniProt P00533, L858R/T790M); experiment: EGFR kinase enzymatic assay (ADP-Glo), L858R/T790M mutant; assay type: biochemical
T1 construct: purchased Promega Corporation V5324
Method: (§7) Concentrations consisting of suitable levels from 0.1 to 100 nM were used for all of the tested compunds. The experiments were performed according to the instructions of the manufacturer. […] The test was performed in a 384-well plate, and includes the major steps below: (1) perform a 5 μL kinase reaction using 1× kinase buffer (e.g., 1× reaction buffer A); (2) incubate at room temperature for 60 min; (3) add 5 μL of ADP-Glo™ Reagent to stop the kinase reaction and deplete the unconsumed ATP, leaving only ADP and a very low background of ATP; (4) incubate at room temperature for 40 min; (5) add 10 μL of Kinase Detection; (6) reagent to convert ADP to ATP and introduce luciferase and luciferin to detect ATP; (7) incubate at room temperature for 30 min; (8) plate was measured on TriStar® LB942 Multimode Microplate Reader (BERTHOLD TECHNOLOGIES GmbH & Co. KG., Bad Wildbad, Germany) to detect the luminescence (Integration time 0.5–1 s). Curve fitting and data presentations were performed using GraphPad Prism version 5.0 (GraphPad Software, Inc.).

wild-type EGFR = target: T2, wild-type EGFR (Homo sapiens, UniProt P00533); experiment: EGFR kinase enzymatic assay (ADP-Glo), wild-type; assay type: biochemical; details: read-out: EGFR (IC50, nM) WT
T2 construct: purchased Promega Corporation V3831
Method: as §7, with “The” for “Concentrations consisting of suitable levels from 0.1 to 100 nM were used for all of the tested compunds. The”

A431 cells [13] = experiment: Cell cycle analysis, PI flow cytometry, A431; assay type: cell-based, human; details: 48 h
Method: as §4

[14] = high dose, patients in clinical trials; cited from earlier work
[15] = A549 (wild-type and k-ras), CCK-8, read-out: Cellular Antiproliferative Activity (IC50, μM) A549
[16] = HCC827 (EGFR del E746_A750), CCK-8, read-out: Cellular Antiproliferative Activity (IC50, μM) HCC827
[17] = A-431, A431 (wild-type), CCK-8, read-out: Cellular Antiproliferative Activity (IC50, μM) A431
[18] = CCK-8, read-out: Cellular Antiproliferative Activity (IC50, μM) LoVo

Compound: C=CC(=O)Nc1cc(Nc2nccc(-c3cn(C)c4ccccc34)n2)c(OC)cc1N(C)CCN(C)C [Osimertinib, osimertinib]
- IC50 (A549 cells; A549, read-out: Cellular Antiproliferative Activity (IC50, μM) A549): 7.28 µM
- IC50 (LO-2 cells): 4.56 µM
- IC50 (HCC827 cells; HCC827, read-out: Cellular Antiproliferative Activity (IC50, μM) HCC827): 0.0102 µM
- IC50 (HBE cells): 8.39 µM
- IC50 (H1975 cells [1]): 0.087 µM
- IC50 (H1299 cells): 7.49 µM
- IC50 (LoVo cells; read-out: Cellular Antiproliferative Activity (IC50, μM) LoVo): 4.85 µM

Compound: COc1cc2ncnc(Nc3ccc(F)c(Cl)c3)c2cc1OCCCN1CCOCC1 [Gefitinib, gefitinib, reference compound]
- Apoptosis rate (%) (H1975 cells [5]; H1975, 200 nM): 4.6%

Compound: C=CC(=O)Nc1cccc(Nc2nc(Nc3ccc(CN4CCOCC4)cc3)ncc2Cl)c1 [DY3002, N-(3-((5-chloro-2-(4-((1-morpholino)methyl)phenylamino)-4-pyrimidinyl)amino)phenyl)acrylamide]
- IC50 (A549 cells; [15]): 4.45 µM
- hyperglycemia (blood glucose concentration versus control group) [6]: did not result in hyperglycemia; also recorded: did not yield hyperglycemia; also recorded: no hyperglycemia side effects
- IC50 (LO-2 cells): 4.24 µM
- apoptotic morphology (H1975 cells [7]): striking nuclear condensation, membrane blebbing, nuclear fragmentation, and apoptotic bodies
- G0/G1 (H1975 cells [8]): 91.33%
- S (H1975 cells [8]): 5.67%
- IC50 (HCC827 cells; [16]): 0.0104 µM
- inhibition of cell migration (H1975 cells [9]): strongly inhibit migration
- Apoptosis rate (%) (A431 cells [10]; A431, 0.5 μM): 46.1%
- Apoptosis rate (%) (A431 cells [10]; A431, 1 μM): 50.8%
- Apoptosis rate (%) (A431 cells [10]; A431, 2 μM): 61.6%
- apoptotic morphology (A431 cells [11]): striking nuclear condensation, membrane blebbing, nuclear fragmentation, and apoptotic bodies
- IC50 (HBE cells): > 40 µM
- inhibition of cell migration (A431 cells [12]): only moderately interfered
- IC50 (H1975 cells [1]): 0.037 µM
- effect on ROS generation (A431 cells [2]): effectively inhibited ROS generation
- IC50 (EGFR L858R/T790M; EGFR L858R/T790M, ADP-Glo kinase assay): 0.71 nM
- SI(WT:L858R/T790M) (EGFR L858R/T790M; selectivity index, IC50 WT / IC50 L858R/T790M): 632.0
- effect on ROS generation (H1975 cells [3]): effectively inhibited ROS generation
- IC50 (wild-type EGFR): 449 nM
- Apoptosis rate (%) (H1975 cells [5]; H1975, 100 nM): 25.7%
- Apoptosis rate (%) (H1975 cells [5]; H1975, 200 nM): 72.0%
- Apoptosis rate (%) (H1975 cells [5]; H1975, 400 nM): 90.1%
- G0/G1 (A431 cells [13]; A431, 2 μM, cell cycle phase): 75.87%
- cell-cycle arrest (A431 cells [13]; A431, 0.5, 1 and 2 μM): G0/G1 arrest
- IC50 (H1299 cells): 4.12 µM
- IC50 (A431 cells [4]; [17]): 0.382 µM
- IC50 (LoVo cells; [18]): 2.46 µM

- IC50 (A549 cells; [15]): 6.5 µM
- IC50 (HCC827 cells; [16]): 0.0181 µM
- IC50 (H1975 cells [1]): 0.137 µM
- IC50 (H1299 cells): 20.1 µM
- IC50 (A431 cells [4]; [17]): 1.29 µM
- IC50 (LoVo cells; [18]): 20.1 µM
Compound: C=CC(=O)Nc1cccc(Nc2nc(Nc3ccc(N4CCN(C(C)=O)CC4)cc3OC)ncc2C(F)(F)F)c1 [Rociletinib, rociletinib]
- IC50 (LO-2 cells): 8.57 µM
- Apoptosis rate (%) (A431 cells [10]; A431, 1 μM): 54.5%
- IC50 (HBE cells): > 40 µM
- effect on ROS generation (A431 cells [2]): effectively inhibited ROS generation
- side effect in patients [14]: hyperglycemia
- effect on ROS generation (H1975 cells [3]): effectively inhibited ROS generation
- Apoptosis rate (%) (H1975 cells [5]; H1975, 200 nM): 65.2%

From article PMC6274483, “Novel Selective and Potent EGFR Inhibitor that Overcomes T790M-Mediated Resistance in Non-Small Cell Lung Cancer” (Molecules, 2016)
